Laboratory results as given in the supplement of paper PMC10307832.

How the values were obtained:
Test in all cases: relative viability (nuclei count vs DMSO), 5 days (fraction); higher = more cells survive
[1] = compound: CC(C)N(CCCNC(=O)Nc1ccc(C(C)(C)C)cc1)C[C@H]1O[C@@H](n2ccc3c(N)ncnc32)[C@H](O)[C@@H]1O + O=C(CCCCCCC(=O)Nc1ccccc1)NO [Vorinostat] (partner 1 µM)
Summary of the method: (§1)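 Dosing by pin tool came one day after lung cancer cell lines were seeded in 1536-well plates, using either one drug or a fixed anchor-drug dose plus five library-drug doses (not always all listed) in √10 steps. After 5 days, nuclei were counted on 4× images. Relative viability is treated-well nuclei count divided by vehicle-well nuclei count, and values are medians of duplicate plates.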

[2] = compound: CC(C)=CC[C@@H](O)C1=CC(=O)c2c(O)ccc(O)c2C1=O [Shikonin] + O=C(c1cc(Cc2n[nH]c(=O)c3ccccc23)ccc1F)N1CCN(C(=O)C2CC2)CC1 [Olaparib] (partner 8 µM)
Summary of the method: as §1

[3] = compound: CC(C)=CC[C@@H](O)C1=CC(=O)c2c(O)ccc(O)c2C1=O [Shikonin] + Nc1nc2[nH]cc(CCc3ccc(C(=O)N[C@@H](CCC(=O)O)C(=O)O)cc3)c2c(=O)[nH]1 [Pemetrexed] (partner 0.2 µM)
Summary of the method: as §1

[4] = compound: CC(C)N(CCCNC(=O)Nc1ccc(C(C)(C)C)cc1)C[C@H]1O[C@@H](n2ccc3c(N)ncnc32)[C@H](O)[C@@H]1O + CS(=O)(=O)N1CCN(Cc2cc3nc(-c4cccc5[nH]ncc45)nc(N4CCOCC4)c3s2)CC1 [Pictilisib] (partner 1 µM)
Summary of the method: as §1

Cell Line	relative viability ([1]; first compound 0.08 µM)	relative viability ([1]; first compound 0.253 µM)	relative viability ([1]; first compound 0.8 µM)	relative viability ([1]; first compound 2.53 µM)	relative viability ([1]; first compound 8 µM)	relative viability ([2]; first compound 0.01 µM)	relative viability ([2]; first compound 0.1 µM)	relative viability ([2]; first compound 0.3162 µM)	relative viability ([2]; first compound 1 µM)	relative viability ([3]; first compound 0.01 µM)	relative viability ([3]; first compound 0.1 µM)	relative viability ([3]; first compound 0.3162 µM)	relative viability ([3]; first compound 1 µM)	relative viability ([4]; first compound 0.08 µM)	relative viability ([4]; first compound 0.253 µM)	relative viability ([4]; first compound 0.8 µM)	relative viability ([4]; first compound 2.53 µM)	relative viability ([4]; first compound 8 µM)
NCI-H1734	0.773	0.611	0.677	0.783	0.756	0.697	0.655	0.695	0.632	0.413	0.479	0.434	0.382	0.405	0.531	0.435	0.496	0.413
NCI-H1755	0.769	0.74	0.666	0.756	0.723	0.794	0.909	0.837	0.792	0.453	0.409	0.477	0.417	0.469	0.478	0.357	0.452	0.394
NCI-H1793	0.617	–	0.761	0.773	0.574	1.12	0.995	1	0.914	0.808	1.05	0.798	1.11	0.296	–	0.369	0.281	0.35
NCI-H1915	0.495	0.582	0.483	0.475	0.485	0.254	0.268	0.257	0.245	0.442	0.684	0.517	0.449	0.939	0.879	0.868	0.912	0.808
NCI-H1944	0.508	0.48	0.484	0.637	0.546	0.428	0.408	0.414	0.387	0.625	0.719	0.676	0.572	0.314	0.292	0.285	0.384	0.366
NCI-H1975	0.748	0.687	0.701	0.658	0.709	0.815	0.836	0.955	0.715	0.315	0.298	0.286	0.283	0.289	0.268	0.197	0.271	0.289
NCI-H1993	0.663	–	0.661	0.748	0.818	0.92	0.943	1.12	1.32	0.561	0.619	0.557	0.627	0.822	0.716	0.868	0.781	0.773
NCI-H2009	0.728	0.73	0.703	0.744	0.675	0.774	0.691	0.624	0.497	1.11	1.06	1.09	1.05	0.817	0.663	0.826	0.976	0.854
NCI-H2023	0.605	0.608	0.576	0.584	0.45	0.478	0.559	0.622	0.437	0.239	0.235	0.221	0.262	0.265	0.215	0.219	0.333	0.217
NCI-H2085	0.769	0.667	0.813	0.887	0.744	0.756	0.82	0.725	0.76	0.88	0.93	0.868	0.872	0.456	0.405	0.429	0.455	0.568
NCI-H2087	0.681	0.732	0.929	0.668	0.512	0.696	0.544	0.592	0.551	0.675	0.706	0.626	0.69	0.898	0.778	0.745	0.963	0.653
NCI-H2126	0.672	0.702	0.825	0.721	0.711	0.953	1.14	0.943	0.92	0.758	0.716	0.777	0.656	0.499	0.476	0.415	0.529	0.48
NCI-H2170	0.811	0.681	0.807	0.83	0.688	0.623	0.594	0.588	0.576	0.25	0.284	0.282	0.272	0.36	0.262	0.336	0.372	0.323
NCI-H2228	0.593	0.703	0.543	0.556	0.702	0.987	0.808	0.681	0.272	0.314	0.355	0.38	0.355	0.483	–	0.462	0.478	0.28
NCI-H2347	0.54	0.537	0.458	0.608	0.546	0.55	0.619	0.451	0.551	0.471	0.479	0.402	0.44	0.45	0.546	0.661	0.582	0.842
